{"source": "patent US20240065975A1", "about": "“OTF COMPOUND CONNECTED BY SEWING” (LTS LOHMANN THERAPIE-SYSTEME AG, priority 2021, published 2024)", "origin": "cited, not measured here", "conditions": "compared with (R)-ketamine"}
{"smiles": "CNC1(c2ccccc2Cl)CCCCC1=O", "note": "(racemic) [(S)-ketamine, (S)-(±)-2-(2-chlorophenyl)-2-(methylamino)cyclohexan-1-one]", "values": [{"measurement": "analgesic and anaesthetic potency relative to the (R) form", "value": "approximately three times higher"}]}
